# Publication PMC10573062, “Synthesis, Structural Characterization, Cytotoxicity, and Protein/DNA Binding Properties of Pyridoxylidene-Aminoguanidine-Metal (Fe, Co, Zn, Cu) Complexes” (International Journal of Molecular Sciences, 2023)
# Experiments:
# A2780 ovarian cancer [1] = assay: MTT viability assay, A2780; format: cell-based, human; conditions: 72 h of treatment
# Method: (§1) The following cell lines were used in this study: human cell lines (A375 melanoma, MCF-7 breast cancer, HCT116 colorectal carcinoma, and A2780 ovarian cancer. These cell lines were purchased from the American Type Culture Collection (Rockville, MD, USA). The A2780 cells were cultivated in DMEM, while all other cell lines were cultivated in the HEPES-buffered RPMI-1640 medium. The cell culture mediums were supplemented with penicillin (1000 units/mL), streptomycin (100 µg/mL), and 10% inactivated FBS. All cells were cultivated at 37 °C in a humidified atmosphere with 5% CO2.
# (§2) Two colorimetric viability assays were applied, namely 3-(4,5-dimethylthiazol-2-yl)-2,5-diphenyl-2H-tetrazolium bromide (MTT) and crystal-violet (CV) (Sigma Aldrich, St. Louis, MO, USA), according to the previous studies. The cells were seeded overnight in 96-well plates: A2780 and MRC-5 8 × 10^3 cells/well, HCT 116 6 × 10^3 cells/well, A375 5 × 10^3 cells/well, and MCF-7 at 10 × 10^3 cells/well [67]. The standard solutions of complexes were prepared in DMSO. All cells were treated with the following concentrations of investigated compounds: 100, 50, 25, 12.5, 6.25, 3.125, and 1.56 µM. After 72 h of treatment, viability assays were conducted. For the CV assay, cells were fixed using 4% paraformaldehyde (PFA) for 20 min at room temperature after being washed once with PBS. Afterward, they were stained with 0.2% CV solution for 25 min. This procedure was followed by washing with double distilled water. The cells were left to dry overnight at room temperature. In the last step, 33% acetic acid was used to dissolve the remaining dye. The other test included incubating cells in MTT solution (0.5 mg L^−1 in cell culture medium) for […] at 37 °C in a humid environment with 5% CO2. After one hour, the MTT solution was discarded, and the formed formazan was dissolved using DMSO. A plate reader (Spectromax, Molecular Devices, San Jose, CA, USA) was utilized for the absorption measurements at 570 and 670 (background) nm. The cell viability was calculated as the percentage compared to untreated cells, and the mean was obtained using a four-parametric logistic function. Each of the three independent experiments was performed in quadruplicate.
# [2] = target: T1, bovine serum albumin (BSA) (Bos taurus, UniProt P02769); assay: Spectrofluorometric titration of BSA (fluorescence quenching, double log Stern–Volmer, van't Hoff); format: binding; conditions: for ΔHb / ΔSb: van't Hoff over three temperatures
# T1 construct: purchased
# T1 sequence (P02769 25-607): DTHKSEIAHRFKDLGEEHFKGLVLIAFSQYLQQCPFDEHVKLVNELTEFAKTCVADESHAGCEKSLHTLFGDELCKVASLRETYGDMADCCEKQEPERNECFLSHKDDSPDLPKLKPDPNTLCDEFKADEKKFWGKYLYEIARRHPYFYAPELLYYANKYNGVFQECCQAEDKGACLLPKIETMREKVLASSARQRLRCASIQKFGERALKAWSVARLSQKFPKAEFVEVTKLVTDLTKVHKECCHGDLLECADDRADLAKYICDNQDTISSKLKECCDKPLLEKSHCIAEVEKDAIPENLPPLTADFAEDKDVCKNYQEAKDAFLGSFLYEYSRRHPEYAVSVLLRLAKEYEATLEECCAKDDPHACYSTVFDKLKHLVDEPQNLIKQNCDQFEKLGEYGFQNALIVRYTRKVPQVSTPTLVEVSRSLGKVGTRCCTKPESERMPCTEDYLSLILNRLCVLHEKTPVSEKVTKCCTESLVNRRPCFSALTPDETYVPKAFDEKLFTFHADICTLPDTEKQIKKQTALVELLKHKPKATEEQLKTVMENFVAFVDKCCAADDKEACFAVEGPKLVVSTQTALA
# Method: (§3) The protein binding affinity of obtained compounds was analyzed by the spectrofluorometric titration of BSA and HSA solution by the solution containing obtained compounds. The mixture was irradiated by light with a wavelength of 295 (BSA) and 280 nm (HSA). Both proteins contain fluorescent amino acids within active pockets, and the binding process can be monitored through the change in intensity and position of the emitted light maxima. The fluorescent emission depends on the chemical environment of amino acids. The measurements for each complex were repeated at three temperatures to allow the determination of the thermodynamic parameters of binding.
# (§4) The spectrofluorometric measurements were used to investigate the binding process of obtained compounds towards bovine serum albumin (BSA) and human serum albumin (HSA) on the Cary Eclipse MY2048CH03 instrument. The scan rate was 600 nm min^−1, and both slits were 5 nm. The excitation wavelengths were 295 nm and 280 nm for BSA and HSA, respectively. These energies are characteristics of the protein structure’s tryptophan and other fluorescent amino acid residues. The emission spectra were recorded between 310 and 500 nm. The concentration of proteins was held constant at 5 × 10^−6 M in […] phosphate buffer saline (pH = 7.4). The concentration of complexes changed from 1 to 10 × 10^−6 M, and the emission spectrum was recorded two minutes after the addition of compounds. The data were analyzed by the double log Stern–Volmer quenching equation (Equation (2)):(2) logI0−I/I=logKb+nlogQ
# In the previous equation, I0 and I are the fluorescent emission intensities of BSA/HSA without and with added metal complexes, respectively; Kb is the binding constant; n is the number of binding places; and [Q] is the concentration of quenchers (metal complexes). […]
# [3] = target: T2, human serum albumin (HSA) (Homo sapiens, UniProt P02768); assay: Spectrofluorometric titration of HSA (fluorescence quenching, double log Stern–Volmer, van't Hoff); format: binding; conditions: for ΔHb / ΔSb: van't Hoff over three temperatures
# T2 construct: purchased
# T2 sequence (P02768 25-609): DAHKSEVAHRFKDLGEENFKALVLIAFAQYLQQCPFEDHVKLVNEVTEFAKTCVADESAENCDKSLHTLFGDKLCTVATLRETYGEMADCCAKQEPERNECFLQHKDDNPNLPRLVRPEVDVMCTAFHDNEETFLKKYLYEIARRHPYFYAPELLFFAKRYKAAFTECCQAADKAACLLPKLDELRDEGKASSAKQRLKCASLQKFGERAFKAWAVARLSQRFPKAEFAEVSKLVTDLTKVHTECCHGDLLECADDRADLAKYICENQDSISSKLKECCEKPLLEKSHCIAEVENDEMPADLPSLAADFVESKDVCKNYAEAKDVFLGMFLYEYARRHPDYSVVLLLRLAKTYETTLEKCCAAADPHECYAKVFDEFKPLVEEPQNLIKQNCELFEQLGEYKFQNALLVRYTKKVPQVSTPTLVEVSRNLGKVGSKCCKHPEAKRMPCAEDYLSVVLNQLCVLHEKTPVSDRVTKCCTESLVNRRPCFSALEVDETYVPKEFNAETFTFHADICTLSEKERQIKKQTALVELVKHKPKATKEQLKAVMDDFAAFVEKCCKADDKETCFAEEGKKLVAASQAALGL
# Method: as §3
# The binding affinity of obtained complexes was also examined towards HSA as a transport protein relevant to the human body. The temperature range was changed to reflect better temperatures common for humans (32–42 °C). The representative example of the HAS fluorescence measurements is shown in Figure 9, along with van’t Hoff’s plot. The decrease in the fluorescence intensity emission was also dependent on the concentration of complexes. On average, the binding constants were similar to the ones calculated for BSA. […] High correlation coefficients, between 0.990 and 0.998, were calculated for the dependency described by Equation (2). The number of binding places is 1, proving that the same type of complexes were formed between investigated compounds and HAS as previously shown for BSA.
# as §4
# In the previous equation, I0 and I are the fluorescent emission intensities of BSA/HSA without and with added metal complexes, respectively; Kb is the binding constant; n is the number of binding places; and [Q] is the concentration of quenchers (metal complexes).
# The changes in enthalpy and entropy of the binding process were determined from the vant’t Hoff equation (Equation (3)) following the measurements at three temperatures (27, 32, and 37 °C):(3) lnKb=−∆Hb/RT+∆Sb/R
# [4] = Qualitative solubility in solvents; format: physicochemical
# MCF-7 breast cancer [5] = assay: CV (crystal-violet) viability assay, MCF-7; format: cell-based, human; conditions: MCF-7, CV, 72 h of treatment
# Method: as §1, §2
# [6] = tested on: HCT116 colorectal carcinoma; assay: CV (crystal-violet) viability assay, HCT116; format: cell-based, human; conditions: 72 h of treatment
# Method: as §1, §2
# MCF-7 breast cancer [7] = assay: MTT viability assay, MCF-7; format: cell-based, human; conditions: MCF-7, MTT, 72 h of treatment
# Method: as §1, §2
# A2780 ovarian cancer [8] = assay: CV (crystal-violet) viability assay, A2780; format: cell-based, human; conditions: 72 h of treatment
# Method: as §1, §2
# [9] = tested on: HCT116 colorectal carcinoma; assay: MTT viability assay, HCT116; format: cell-based, human; conditions: 72 h of treatment
# Method: as §1, §2
# HCT116 cell lines = tested on: HCT116 cell lines; design: method as in PMID 30798514; conditions: previous study; cited from earlier work
# A375 melanoma [10] = assay: MTT viability assay, A375; format: cell-based, human; conditions: 72 h of treatment
# Method: as §1
# as §2, with “After one hour, the MTT solution was discarded, and the formed formazan was dissolved using DMSO.” left out, “Each of the three independent experiments was performed in quadruplicate.” left out
# A375 melanoma [11] = assay: CV (crystal-violet) viability assay, A375; format: cell-based, human; conditions: 72 h of treatment
# Method: as §1
# as §2, with “After one hour, the MTT solution was discarded, and the formed formazan was dissolved using DMSO.” left out, “Each of the three independent experiments was performed in quadruplicate.” left out
# [12] = in chloroform, dimethylsulfoxide, dimethylformamide, acetone, and acetonitrile
# [13] = in methanol, ethanol, phosphate buffer saline, and water
Molecule,IC50 (A2780 ovarian cancer [1]),Kb (binding constant) ([2]; 27 °C),n (number of binding places) ([2]; 27 °C),ΔGb ([2]; 27 °C),Kb (binding constant) ([2]; 32 °C),n (number of binding places) ([2]; 32 °C),ΔGb ([2]; 32 °C),Kb (binding constant) ([2]; 35 °C),n (number of binding places) ([2]; 35 °C),ΔGb ([2]; 35 °C),ΔHb [2],ΔSb [2],n (number of binding places) ([3]; 32 °C),ΔGb ([3]; 32 °C),n (number of binding places) ([3]; 37 °C),ΔGb ([3]; 37 °C),n (number of binding places) ([3]; 42 °C),ΔGb ([3]; 42 °C),"solubility [4, 12]",solubility ([4]; in diethyl ether and toluene),also measured
Cu(PLAG)(NCS)2 [Cu-PLAG],32.5 ± 2.6 µM,9630 M⁻¹,1.13,-5.382 kcal/mol,89700 M⁻¹,1.10,-7.087 kcal/mol,1.82e+06 M⁻¹,0.98,-8.788 kcal/mol,96.793 kcal/mol,1425.02 J mol^−1 K^−1,0.91,-5.37 kcal/mol,0.90,-5.961 kcal/mol,0.98,-6.554 kcal/mol,soluble,insoluble,"ΔHb [3]: 30.727 kcal/mol; ΔSb [3]: 495.17 J mol^−1 K^−1; solubility [4, 13]: moderately soluble; IC50 (MCF-7 breast cancer [5]): 65.4 ± 4.8 µM; IC50 [6]: 97.4 ± 3.7 µM; IC50 (MCF-7 breast cancer [7]): 48.3 ± 1.5 µM; IC50 (A2780 ovarian cancer [8]): 38.5 ± 2.1 µM; IC50 [9]: 81.5 ± 0.1 µM"
O=S(=O)([O-])[O-].[Cu+2] [CuSO4],–,–,–,–,–,–,–,–,–,–,–,–,–,–,–,–,–,–,–,–,activity towards HCT116 cell line (HCT116 cell lines): almost completely inactive
[Co(PLAG)2]SO4^.2H2O [Co-PLAG],> 100 µM,18600 M⁻¹,0.97,-5.858 kcal/mol,20400 M⁻¹,0.98,-6.021 kcal/mol,22900 M⁻¹,0.96,-6.181 kcal/mol,3.826 kcal/mol,135.08 J mol^−1 K^−1,1.05,-5.578 kcal/mol,1.08,-6.761 kcal/mol,1.16,-7.945 kcal/mol,soluble,insoluble,"ΔHb [3]: 66.597 kcal/mol; ΔSb [3]: 990.11 J mol^−1 K^−1; solubility [4, 13]: moderately soluble; IC50 (MCF-7 breast cancer [5]): > 100 µM; IC50 [6]: > 100 µM; IC50 (A375 melanoma [10]): > 100 µM; IC50 (MCF-7 breast cancer [7]): > 100 µM; IC50 (A375 melanoma [11]): > 100 µM; IC50 (A2780 ovarian cancer [8]): > 100 µM; IC50 [9]: > 100 µM"

# More lines, main results first:
IC50 (A2780 ovarian cancer [1]),Kb (binding constant) ([2]; 27 °C),n (number of binding places) ([2]; 27 °C),ΔGb ([2]; 27 °C),Kb (binding constant) ([2]; 32 °C),n (number of binding places) ([2]; 32 °C),ΔGb ([2]; 32 °C),Kb (binding constant) ([2]; 35 °C),n (number of binding places) ([2]; 35 °C),ΔGb ([2]; 35 °C),ΔHb [2],ΔSb [2],n (number of binding places) ([3]; 32 °C),ΔGb ([3]; 32 °C),n (number of binding places) ([3]; 37 °C),ΔGb ([3]; 37 °C),n (number of binding places) ([3]; 42 °C),ΔGb ([3]; 42 °C),"solubility [4, 12]",solubility ([4]; in diethyl ether and toluene),Molecule,also measured
> 100 µM,58000 M⁻¹,1.13,-6.561 kcal/mol,124000 M⁻¹,1.09,-7.065 kcal/mol,208000 M⁻¹,1.03,-7.567 kcal/mol,23.61 kcal/mol,420.77 J mol^−1 K^−1,1.11,-6.848 kcal/mol,0.99,-6.898 kcal/mol,0.95,-6.948 kcal/mol,soluble,insoluble,[Zn(PLAG)(SO4)(H2O)]^.H2O [Zn-PLAG],"solubility [4, 13]: moderately soluble; IC50 (MCF-7 breast cancer [5]): > 100 µM; IC50 [6]: > 100 µM; IC50 (A375 melanoma [10]): > 100 µM; IC50 (MCF-7 breast cancer [7]): > 100 µM; IC50 (A375 melanoma [11]): > 100 µM; IC50 (A2780 ovarian cancer [8]): > 100 µM; IC50 [9]: > 100 µM"
> 100 µM,31800 M⁻¹,1.12,-6.171 kcal/mol,83200 M⁻¹,1.10,-6.888 kcal/mol,234000 M⁻¹,1.04,-7.605 kcal/mol,36.898 kcal/mol,600.66 J mol^−1 K^−1,1.09,-5.081 kcal/mol,0.90,-6.647 kcal/mol,1.12,-8.212 kcal/mol,soluble,insoluble,[Fe(PLAG)2]SO4^.2H2O [Fe-PLAG],"ΔHb [3]: 90.411 kcal/mol; ΔSb [3]: 1309.95 J mol^−1 K^−1; solubility [4, 13]: moderately soluble; IC50 (MCF-7 breast cancer [5]): > 100 µM; IC50 [6]: > 100 µM; IC50 (A375 melanoma [10]): > 100 µM; IC50 (MCF-7 breast cancer [7]): > 100 µM; IC50 (A375 melanoma [11]): > 100 µM; IC50 (A2780 ovarian cancer [8]): > 100 µM; IC50 [9]: > 100 µM"
–,–,–,–,–,–,–,–,–,–,–,–,–,–,–,–,–,–,–,insoluble,"Cc1ncc(CO)c(/C=N/N=C(N)N)c1O [PLAG, Pyridoxylidene-aminoguanidine]","solubility ([4]; in MeOH and DMF): soluble; solubility ([4]; in methanol, ethanol, and water): moderately soluble"
